From patent US20050180954A1, “Drug for treating bone disorders” (priority 1995, published 2005)

Assays:
[1] = tested on: ovariectomized mice of ddy strain; assay: Osteoporosis model mice (ovariectomy): dry bone weight of femur; assay type: in vivo, mouse
Protocol: Female mice of ddy strain of 8 weeks old were divided into 5 groups and experiment was carried out. Bilateral ovariectomy was performed on the mice in 3 groups and sham operation alone was performed on the mice in 2 groups. Thereafter, the mice were raised with normal diet for 1 month, thereby making the state of osteoporosis in the ovariectomized groups. In this model, it is known that the mice become the state of osteoporosis 2 to 3 weeks after the ovariectomy (T. Hosaka et al., ANITEX, Vol. 5, 243, 1992; Miyaura, C. et al., J. Bone Mineral Res., 10, 1365, 1995). From the third weeks from the ovariectomy, murine IFN was subcutaneously administered (100 μl/head/time) once per day, totally 25 times. On Day 30 from the beginning of administration, under ether anesthesia, body weight was measured, blood was collected, and femur was collected and dry bone weight thereof was measured for each mouse.
Drying of femur was performed as follows. That is, femur was fixed with 2 ml of 70% ethanol per one taken out femur at room temperature for 24 hours and then the attached muscles and connective tissues were carefully removed with a forceps and surgical knife with replaceable blade. After immersing the femur in fresh 70% ethanol for 72 hours at room temperature, the femur was dried in a hot wind-generating incubator (Koukensha Engineering. Co., Tokyo) at 55° C. for 24 hours. The weight of the dried bone was measured with an electronic force balance (Mettler AE50, Metteler Instrumente AG, Switzerland). Murine IFN to be administered was diluted to the desired concentration with physiological saline. During the test, urine of mice was collected with metabolic cage (KN-645, Natsumeseisakusho, Tokyo) and frozen to store. To one group subjected to the sham operation, physiological saline (Otsuka Pharmaceutical Co.) was administered, and to another group subjected to the sham operation, murine IFNβ was administered at a dose of 10^5 units/head/time (diluted with physiological saline when use). […]

MC3T3-E1 cells [2] = assay: Mineralization of murine osteoblasts, Von Kossa stain (in vitro multiple administration); assay type: cell-based, mouse; details: MC3T3-E1, twice administration, Von Kossa on Day 9
Protocol: MC3T3-E1 cells were placed in each well in 24-well plates in an amount of 30,000 cells/well and cultured to confluency. The medium was removed and fresh α-MEM containing 10% JCS, 50 μg/ml of L-ascorbic acid and 10 mM β-glycerophosphate was added in an amount of 0.9 ml/well, followed by adding 0.1 ml/well of medium containing varying concentration of IFN. The medium was replaced with the medium containing the respective concentration of IFN every 4 days. On Day 9 from the first treatment with IFN, Von Kossa stain was performed to visualize the calcified foci.

MC3T3-E1 cells [3] = assay: Proliferation of murine osteoblastic cells MC3T3-E1 (in vitro single administration); assay type: cell-based, mouse; details: 10,000 units/ml; cell count on Day 6
Protocol: Murine osteoblast like cells MC3T3-E1 originated from C 57 BL/6 mouse (Kodama et al., Jap. J. Oral Biol., 23, 899, 1982) were washed with PBS(−) and the cells were dissociated by incubation in PBS(−) containing 0.1% pronase (Actinase E, Kaken Pharmaceuticals Co.), followed by dispersing the cells in α-MEM containing 10% JCS and 50 μg/ml of L-ascorbic acid (ASA). The ability to promote proliferation of cells was evaluated as follows. That is, MC3T3-E1 cells were placed in each well in 24-well plates (Corning) in an amount of 5000 cells/well. Then each IFN dilution was added to each well in an amount of 0.1 ml/well, and the culturing was begun. On Day 2, the medium was removed and the each IFN dilution was added in an amount of 0.5 ml/well (total amount of liquid: 0.5 ml/well). On Day 6, the medium was removed and the cells were washed with PBS(−) and a mixed enzyme solution of 0.1% pronase/0.1% collagenase was added to each well in an amount of 200 μl/well, followed by allowing to react at 37° C. for 15 minutes. Then α-MEM containing 10% fetal calf serum (Gibco, hereinafter referred to as “FCS” for short) was added in an amount of 300 μl/well to disperse the cells therein and the number of the cells was counted with a Coulter counter.

**Q.** With “MuIFNβ: murine interferon β, Lot M-0034, prepared by Toray Industries, Inc. by genetic engineering technique” as the substance, how does the “bone volume (dry bone weight of femur)” value ([1]; ovariectomized mice, 10^3 units/head/time s.c.) read?
**A.** exhibited prevention effect against further loss in the bone volume

**Q.** What about the “bone volume (dry bone weight of femur)” value ([1]; ovariectomized mice, 10^5 units/head/time s.c. once per day, 25 times, Day 30) of the same substance?
**A.** recovered the normal level of bone volume

**Q.** And the “bone volume (dry bone weight of femur)” value ([1]; sham operation mice, 10^5 units/head/time s.c.)?
**A.** significant increase in the bone volume was not observed

**Q.** What about the “number of calcified foci and intensity of staining” value (MC3T3-E1 cells [2]) of the same substance?
**A.** dose dependently increased

**Q.** What about the “inhibition of proliferation of MC3T3-E1 cells” value (MC3T3-E1 cells [3]) of the same substance?
**A.** did not inhibit the proliferation at all
